Where two headings read alike, the source gives them in different places.
Assays:
[1] = target: T1, soybean lipoxygenase (LOX) (Glycine max, UniProt P08170); experiment: in vitro inhibition of soybean lipoxygenase, UV absorbance based enzyme assay; format: biochemical; conditions: sodium linoleate 0.1 mM, pH 9; for % LOX Inhibition at 100 Μμ / inhibition at 100 µM: 100 μM compound; for inhibition at 100 µM: read-out: % LOX Inhibition at 100 Μμ
T1 construct: purchased Sigma Chemical, Co. (St. Louis, MO, USA)
T1 sequence (P08170 1-839): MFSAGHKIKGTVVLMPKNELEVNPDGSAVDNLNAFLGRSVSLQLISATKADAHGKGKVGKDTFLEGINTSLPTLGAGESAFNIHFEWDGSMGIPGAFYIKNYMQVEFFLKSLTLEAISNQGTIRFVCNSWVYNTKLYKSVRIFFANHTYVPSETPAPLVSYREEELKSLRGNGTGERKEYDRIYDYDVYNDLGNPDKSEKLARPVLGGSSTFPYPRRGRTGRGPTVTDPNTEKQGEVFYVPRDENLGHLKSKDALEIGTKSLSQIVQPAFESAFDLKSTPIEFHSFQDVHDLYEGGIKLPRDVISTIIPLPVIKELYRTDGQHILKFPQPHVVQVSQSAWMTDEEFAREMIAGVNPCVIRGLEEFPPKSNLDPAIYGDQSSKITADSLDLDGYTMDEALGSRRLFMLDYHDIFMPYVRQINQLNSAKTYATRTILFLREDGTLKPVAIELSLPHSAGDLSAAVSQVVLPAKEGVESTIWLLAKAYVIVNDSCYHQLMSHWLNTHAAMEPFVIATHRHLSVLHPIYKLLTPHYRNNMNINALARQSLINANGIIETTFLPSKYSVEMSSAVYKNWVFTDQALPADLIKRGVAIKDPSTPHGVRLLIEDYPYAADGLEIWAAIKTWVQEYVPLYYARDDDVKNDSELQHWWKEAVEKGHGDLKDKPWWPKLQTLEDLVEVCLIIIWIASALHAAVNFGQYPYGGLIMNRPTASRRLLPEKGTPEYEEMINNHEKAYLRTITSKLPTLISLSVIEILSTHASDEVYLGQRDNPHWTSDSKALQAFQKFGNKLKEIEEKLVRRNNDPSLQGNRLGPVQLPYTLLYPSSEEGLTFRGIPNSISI
Description: Most of the LOX inhibitors are antioxidants or free radical scavengers. LOXs contain a non-heme iron per molecule in the enzyme active site as high-spin Fe^2+ in the native state and the high spin Fe^3+ in the activated state.
A DMSO solution of the tested compound was incubated with sodium linoleate (0.1 mM) and 0.2 mL of soybean LOX solution (1/9 × 10^−4 w/v in saline) in buffer pH 9 (tris) and at room temperature.

[2] = target: hCA I (Homo sapiens, UniProt P00915); experiment: stopped flow CO2 hydrase assay, hCA I
Description: (§1) An Applied Photophysics (Oxford, UK) stopped-flow instrument has been used for assaying the CA catalysed CO2 hydration activity [36]. […] The uncatalyzed rates were determined in the same manner and subtracted from the total observed rates. Stock solutions of inhibitor (0.1 mM) were prepared in distilled-deionized water and dilutions up to 0.01 nM were done thereafter with distilled-deionized water. […] The inhibition constants were obtained by non-linear least-squares methods using PRISM 3, as reported earlier [42, 43, 44, 45, 46, 47, 48, 49, 50] and represent the mean from at least three different determinations. The four CA isoforms were recombinant proteins obtained as reported earlier in our laboratory [42, 43, 44, 45, 46, 47, 48, 49, 50].

[3] = target: T1, soybean lipoxygenase (LOX); set-up: method as in doi:10.1007/s00044-017-1800-6; conditions: 100 μM compound; footnote d; cited from earlier work
[4] = target: hCA IV (Homo sapiens, UniProt P22748); experiment: stopped flow CO2 hydrase assay, hCA IV
Description: as §1

[5] = target: hCA II (Homo sapiens, UniProt P00918); experiment: stopped flow CO2 hydrase assay, hCA II
Description: as §1

[6] = target: hCA IX (Homo sapiens, UniProt Q16790); experiment: stopped flow CO2 hydrase assay, hCA IX
Description: as §1

Sequence of hCA I (P00915 whole entry): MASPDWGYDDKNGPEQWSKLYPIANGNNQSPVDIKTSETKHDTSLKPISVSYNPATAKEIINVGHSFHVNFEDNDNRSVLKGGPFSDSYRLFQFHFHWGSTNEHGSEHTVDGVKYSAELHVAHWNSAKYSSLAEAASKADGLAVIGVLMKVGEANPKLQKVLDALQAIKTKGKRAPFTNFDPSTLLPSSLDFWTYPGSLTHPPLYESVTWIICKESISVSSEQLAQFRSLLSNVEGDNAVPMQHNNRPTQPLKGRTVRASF
Sequence of hCA IV (P22748 19-312): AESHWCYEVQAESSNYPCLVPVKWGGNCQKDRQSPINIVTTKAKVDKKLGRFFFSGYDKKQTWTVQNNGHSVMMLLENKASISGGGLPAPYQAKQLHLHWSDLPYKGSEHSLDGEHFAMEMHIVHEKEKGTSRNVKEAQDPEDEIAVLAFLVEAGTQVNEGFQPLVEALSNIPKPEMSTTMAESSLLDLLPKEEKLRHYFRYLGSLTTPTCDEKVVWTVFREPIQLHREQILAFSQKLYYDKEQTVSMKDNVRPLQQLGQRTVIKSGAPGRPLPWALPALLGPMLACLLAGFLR

| % LOX Inhibition at 100 Μμ [1] [%] | inhibition at 100 µM [1] [%] | Ki [2] [µM] | Ki [4] [µM] | melting point [°C] | Ki [5] [µM] | Ki [6] [nM] | IC50 [1] [µM] | Compound | % LOX Inhibition at 100 Μμ [3] [%] |
| --- | --- | --- | --- | --- | --- | --- | --- | --- | --- |
| 37 | – | – | – | – | – | – | – | 2-((2-Oxo-2H-chromen-6-yl)oxy)-N-(pyridin-4-ylmethyl)acetamide [Compound 11b] | – |
| 77 | – | – | – | – | – | – | – | 2-((2-Oxo-2H-chromen-7-yl)oxy)-N-(pyridin-4-ylmethyl)acetamide [Compound 11a] | – |
| – | 40 | – | – | – | – | – | – | O=c1ccc2cc(O)ccc2o1 [Compound 1b, 6-hydroxycoumarin] | – |
| – | – | > 10 | 5.57 | 112.9 to 113 | > 10 | 247 | – | CCOC(=O)COc1ccc2ccc(=O)oc2c1 [Compound 2a, Ethyl 2-((2-oxo-2H-chromen-7-yl)oxy)acetate] | 16 |
| – | – | > 10 | > 10 | 120 to 122 | > 10 | 2040 | – | CCOC(=O)COc1ccc2oc(=O)ccc2c1 [Compound 2b, Ethyl 2-((2-oxo-2H-chromen-6-yl)oxy)acetate] | 41 |
| – | – | > 10 | 8.48 | – | > 10 | 290 | – | O=C(O)COc1ccc2ccc(=O)oc2c1 [Compound 3a, 2-((2-Oxo-2H-chromen-7-yl)oxy)acetic acid] | 50 |
| – | – | > 10 | > 10 | – | > 10 | 195 | – | O=C(O)COc1ccc2oc(=O)ccc2c1 [Compound 3b, 2-((2-Oxo-2H-chromen-6-yl)oxy)acetic acid] | 50 |
| – | 96 | > 10 | > 10 | 178 to 179 | > 10 | 166 | 10 | O=C(COc1ccc2ccc(=O)oc2c1)NCCc1ccccc1 [Compound 4a, 2-((2-Oxo-2H-chromen-7-yl)oxy)-N-phenethylacetamide] | – |
| – | 85 | > 10 | > 10 | 150 to 151 | > 10 | 30.5 | 10 | O=C(COc1ccc2oc(=O)ccc2c1)NCCc1ccccc1 [Compound 4b, 2-((2-Oxo-2H-chromen-6-yl)oxy)-N-phenethylacetamide] | – |
| – | 45 | > 10 | > 10 | 167 to 168 | > 10 | 83.7 | – | O=C(COc1ccc2ccc(=O)oc2c1)NCc1ccccc1 [Compound 5a, N-Benzyl-2-((2-oxo-2H-chromen-7-yl)oxy)acetamide] | – |
| – | 42 | > 10 | > 10 | 161 to 162 | > 10 | 30.2 | – | O=C(COc1ccc2oc(=O)ccc2c1)NCc1ccccc1 [Compound 5b, N-Benzyl-2-((2-oxo-2H-chromen-6-yl)oxy)acetamide] | – |
| – | 63 | > 10 | > 10 | 160 to 161 | > 10 | 2540 | 47 | O=C(COc1ccc2ccc(=O)oc2c1)NCc1ccc(F)cc1 [Compound 6a, N-(4-Fluorobenzyl)-2-((2-oxo-2H-chromen-7-yl)oxy)acetamide] | – |
| – | 26 | > 10 | > 10 | 158 to 159 | > 10 | 2780 | – | O=C(COc1ccc2oc(=O)ccc2c1)NCc1ccc(F)cc1 [Compound 6b, N-(4-Fluorobenzyl)-2-((2-oxo-2H-chromen-6-yl)oxy)acetamide] | – |
| – | 50 | > 10 | > 10 | 182 to 183 | > 10 | 201 | 100 | O=C(COc1ccc2ccc(=O)oc2c1)Nc1ccccc1 [Compound 7a, 2-((2-Oxo-2H-chromen-7-yl)oxy)-N-phenylacetamide] | – |
| – | 45 | > 10 | 2.65 | 182 to 183 | > 10 | 202 | – | O=C(COc1ccc2oc(=O)ccc2c1)Nc1ccccc1 [Compound 7b, 2-((2-Oxo-2H-chromen-6-yl)oxy)-N-phenylacetamide] | – |
| – | 43 | > 10 | 0.35 | 208 to 209 | > 10 | 136 | – | O=C(COc1ccc2ccc(=O)oc2c1)Nc1ccc(F)cc1 [Compound 8a, N-(4-Fluorophenyl)-2-((2-oxo-2H-chromen-7-yl)oxy)acetamide] | – |
| – | 11 | > 10 | 0.848 | 206 to 207 | > 10 | 146 | – | O=C(COc1ccc2oc(=O)ccc2c1)Nc1ccc(F)cc1 [Compound 8b, N-(4-Fluorophenyl)-2-((2-oxo-2H-chromen-6-yl)oxy)acetamide] | – |
| – | 33 | > 10 | > 10 | 213 to 214 | > 10 | 2730 | – | COC(=O)c1ccccc1NC(=O)COc1ccc2ccc(=O)oc2c1 [Compound 9a, Methyl 2-(2-((2-oxo-2H-chromen-7-yl)oxy)acetamido)benzoate] | – |
| – | 50 | > 10 | > 10 | 213 to 214 | > 10 | 2040 | 100 | COC(=O)c1ccccc1NC(=O)COc1ccc2oc(=O)ccc2c1 [Compound 9b, Methyl 2-(2-((2-oxo-2H-chromen-6-yl)oxy)acetamido)benzoate] | – |
| – | 79 | > 10 | > 10 | 138 to 139 | > 10 | 2380 | 15 | O=C(COc1ccc2ccc(=O)oc2c1)NCCc1ccccn1 [Compound 10a, 2-((2-Oxo-2H-chromen-7-yl)oxy)-N-(2-(pyridin-2-yl)ethyl)acetamide] | – |
| – | 40 | > 10 | > 10 | 141 to 142 | > 10 | 2150 | – | O=C(COc1ccc2oc(=O)ccc2c1)NCCc1ccccn1 [Compound 10b, 2-((2-Oxo-2H-chromen-6-yl)oxy)-N-(2-(pyridin-2-yl)ethyl)acetamide] | – |
| – | 56 | > 10 | > 10 | 148 to 149 | > 10 | > 10000 | 42.5 | O=C(COc1ccc2ccc(=O)oc2c1)NCCN1CCOCC1 [Compound 12a, N-(2-Morpholinoethyl)-2-((2-oxo-2H-chromen-7-yl)oxy)acetamide] | – |
| – | 64 | > 10 | > 10 | 149 to 150 | > 10 | > 10000 | 16.5 | O=C(COc1ccc2oc(=O)ccc2c1)NCCN1CCOCC1 [Compound 12b, N-(2-Morpholinoethyl)-2-((2-oxo-2H-chromen-6-yl)oxy)acetamide] | – |
| – | 50 | > 10 | > 10 | 116 to 117 | > 10 | 1970 | 100 | O=C(COc1ccc2ccc(=O)oc2c1)NCCN1CCCCC1 [Compound 13a, 2-((2-Oxo-2H-chromen-7-yl)oxy)-N-(2-(piperidin-1-yl)ethyl)acetamide] | – |
| – | 37.6 | > 10 | > 10 | 115 to 116 | > 10 | 274 | – | O=C(COc1ccc2oc(=O)ccc2c1)NCCN1CCCCC1 [Compound 13b, 2-((2-Oxo-2H-chromen-6-yl)oxy)-N-(2-(piperidin-1-yl)ethyl)acetamide] | – |
